Laboratory results taken from patent publication US7329761B2, “Substituted imides” (Celgene Corporation, priority 1994, dated 2008).

melting point [°C] | SMILES
124 to 125 | COc1ccc(C(C)N2C(=O)c3ccccc3C2=O)cc1OC (stereo not shown) [Example 2, 1-Phthalimido-1-(3′,4′-dimethoxyphenyl) Ethane]
85 to 86 | CCC(c1ccc(OC)cc1)N1C(=O)c2ccccc2C1=O (stereo not shown) [Example 3, 1-Phthalimido-1-(4-methoxyphenyl)propane]
160 to 161 | COc1ccc(CN2C(=O)c3ccccc3C2=O)cc1OC [Example 4, 1-Phthalimido-1-(3′,4′-dimethoxyphenyl)methane]
100 to 101 | CCCC(CCC)C(c1ccc(OC)c(OC)c1)N1C(=O)c2ccccc2C1=O (stereo not shown) [Example 7, 1-Phthalimido-1 (3′,4′-dimethoxyphenyl)-2-propylpentane]
